From patent US9561212B2, “Hepatitis C virus inhibitors” (BRISTOL-MYERS SQUIBB COMPANY, priority 2012, dated 2017) come the findings set out here.

Structures are written as SMILES.

The subject of the first test is HCV 1b genotype. Description: microbe, parasite or virus in culture. To be noted: HCV 1b replicon; read-out: Range: EC50 ranges against HCV 1b. In kind it is cell-based, Hepatitis C virus. The protocol:
An HCV Replicon assay was utilized in the present disclosure, and was prepared, conducted and validated as described in commonly owned PCT/US2006/022197 and in O'Boyle et. al. Antimicrob Agents Chemother. 2005 April; 49(4):1346-53. Assay methods incorporating luciferase reporters have also been used as described (Apath.com).
HCV-neo replicon cells and replicon cells containing resistance substitutions in the NS5A region were used to test the currently described family of compounds.
On to `COC(=O)NC(C(=O)N1[C@@H](C)CC[C@H]1c1nc(-c2ccc(-c3ccc(-c4c[nH]c([C@@H]5CC[C@H](C)N5C(=O)C(NC(=O)OC)=C5CC(C)(C#N)C5)n4)cc3)cc2)c[nH]1)=C1CC(C)(C#N)C1` (stereo partly drawn) [Example 12.2, dimethyl (4,4′-biphenyldiylbis(1H-imidazole-4,2-diyl((2S,5S)-5-methyl-2,1-pyrrolidinediyl)(1-(3-cyano-3-methylcyclobutylidene)-2-oxo-2,1-ethanediyl)))biscarbamate], for which the EC50 is 0.9 to 700 nM.

`COC(=O)NC(C(=O)N1CC(C)CC1c1ncc(-c2ccc(C3CC3c3ccc(-c4cnc(C5CC(C)CN5C(=O)C(NC(=O)OC)C5CCOC6(CC6)C5)[nH]4)cc3)cc2)[nH]1)C1CCOC2(CC2)C1` [Example OL1, dimethyl (((3S,3′S,5S,5′S)-5,5′-(5,5′-((1S,2S)-cyclopropane-1,2-diylbis(4,1-phenylene))bis(1H-imidazole-5,2-diyl))bis(3-methylpyrrolidine-5,1-diyl))bis(2-oxo-1-(4-oxaspiro[2.5]octan-7-yl)ethane-2,1-diyl))dicarbamate]: the EC50 lay in the range of 0.00501 to 0.1 nM.

For the compound `COC(=O)NC(C(=O)N1C(c2ncc(-c3ccc(C#Cc4ccc(-c5cnc(C6CC7CC7N6C(=O)C(NC(=O)OC)C6CCOC7(CC7)C6)[nH]5)cc4)cc3)[nH]2)CC2CC21)C1CCOC2(CC2)C1` [OL4, dimethyl (((1R,1′R,3S,3′S,5R,5′R)-3,3′-(5,5′-(ethyne-1,2-diylbis(4,1-phenylene))bis(1H-imidazole-5,2-diyl))bis(2-azabicyclo[3.1.0]hexane-3,2-diyl))bis(2-oxo-1-(4-oxaspiro[2.5]octan-7-yl)ethane-2,1-diyl))dicarbamate], the EC50 fell in the range of 0.00501 to 0.1 nM.

In the case of `COC(=O)NC(C(=O)N1CCCC1c1ncc(-c2ccc(C#Cc3ccc(-c4cnc(C5CCCN5C(=O)C(NC(=O)OC)C5CCOC6(CC6)C5)[nH]4)cc3)cc2)[nH]1)C1CCOC2(CC2)C1` [OL7, dimethyl (((2S,2′S)-2,2′-(5,5′-(ethyne-1,2-diylbis(4,1-phenylene))bis(1H-imidazole-5,2-diyl))bis(pyrrolidine-2,1-diyl))bis(2-oxo-1-(4-oxaspiro[2.5]octan-7-yl)ethane-2,1-diyl))dicarbamate], the EC50 fell in the range of 0.00501 to 0.1 nM.

Staying with this test, now noted: Hepatitis C virus, HCV 1b replicon; read-out: 1b (μM): EC50 (Effective 50% inhibitory concentration) against the HCV 1b genotype.
As to `C#C[C@@H]1CC[C@@H](c2ncc(-c3ccc(-c4ccc(-c5cnc([C@@H]6CC[C@@H](C#C)N6C(=O)[C@@H](NC(=O)OC)C6C[C@@H](C)O[C@H](C)C6)[nH]5)cc4)cc3)[nH]2)N1C(=O)[C@@H](NC(=O)OC)C1C[C@@H](C)O[C@H](C)C1` (stereo partly drawn) [Example 10.1, dimethyl (4,4′-biphenyldiylbis(1H-imidazole-4,2-diyl((2S,5S)-5-ethynyl-2,1-pyrrolidinediyl)((1S)-1-((2R,6R)-2,6-dimethyltetrahydro-2H-pyran-4-yl)-2-oxo-2,1-ethanediyl)))biscarbamate], the EC50 is 0.263 nM.

Take `COC(=O)NC(C(=O)N1CCC[C@H]1c1nc(-c2ccc(-c3c[nH]c([C@@H]4CCCN4C(=O)C(NC(=O)OC)C4CCOC5(CC5)C4)n3)cc2)c[nH]1)C1CCOC2(CC2)C1` (stereo partly drawn) [Example QC14, dimethyl (benzene-1,4-diylbis(1H-imidazole-4,2-diyl(2S)pyrrolidine-2,1-diyl(1-(4-oxaspiro[2.5]oct-7-yl)-2-oxoethane-2,1-diyl)))biscarbamate]: the EC50 came to 14.5 nM.

Staying with this test, now noted: Hepatitis C virus, HCV 1b replicon; read-out: Range: EC50 ranges against HCV 1b.
As to `C#C[C@H]1CC[C@@H](c2ncc(-c3ccc(-c4ccc(-c5cnc([C@@H]6CC[C@H](C#C)N6C(=O)[C@@H](NC(=O)OC)C6C[C@@H](C)O[C@H](C)C6)[nH]5)cc4)cc3)[nH]2)N1C(=O)[C@@H](NC(=O)OC)C1C[C@@H](C)O[C@H](C)C1` (stereo partly drawn) [Example 10, dimethyl (4,4′-biphenyldiylbis(1H-imidazole-5,2-diyl((2S,5R)-5-ethynyl-2,1-pyrrolidinediyl)((1S)-1-((2R,6R)-2,6-dimethyltetrahydro-2H-pyran-4-yl)-2-oxo-2,1-ethanediyl)))biscarbamate], the EC50 fell in the range of 0.00501 to 0.1 nM.

In the case of `C#C[C@@H]1CC[C@@H](c2ncc(-c3ccc(-c4ccc(-c5cnc([C@@H]6CC[C@@H](C#C)N6C(=O)[C@@H](NC(=O)OC)C6C[C@@H](C)O[C@H](C)C6)[nH]5)cc4)cc3)[nH]2)N1C(=O)[C@@H](NC(=O)OC)C1C[C@@H](C)O[C@H](C)C1` (stereo partly drawn) [Example 10.1, dimethyl (4,4′-biphenyldiylbis(1H-imidazole-4,2-diyl((2S,5S)-5-ethynyl-2,1-pyrrolidinediyl)((1S)-1-((2R,6R)-2,6-dimethyltetrahydro-2H-pyran-4-yl)-2-oxo-2,1-ethanediyl)))biscarbamate], the EC50 fell in the range of 0.1 to 0.9 nM.

As for `COC(=O)NC(C(=O)N1[C@@H](C)CC[C@H]1c1nc(-c2ccc(-c3ccc(-c4c[nH]c([C@@H]5CC[C@H](C)N5C(=O)C(NC(=O)OC)=C5CC(C)(C#N)C5)n4)cc3)cc2)c[nH]1)=C1CC(C)(C#N)C1` (stereo partly drawn) [Example 12.1, dimethyl (4,4′-biphenyldiylbis(1H-imidazole-4,2-diyl((2S,5S)-5-methyl-2,1-pyrrolidinediyl)(1-(3-cyano-3-methylcyclobutylidene)-2-oxo-2,1-ethanediyl)))biscarbamate], the EC50 was in the range of 0.9 to 700 nM.

With `COC(=O)N[C@H](C(=O)N1[C@@H](C)CC[C@H]1c1ncc(-c2ccc(-c3ccc(-c4cnc([C@@H]5CC[C@H](C)N5C(=O)[C@@H](NC(=O)OC)C5CC6(COC6)C5)[nH]4)cc3)cc2)[nH]1)C1CC2(COC2)C1` (stereo partly drawn) [Example 13, dimethyl (4,4′-biphenyldiylbis(1H-imidazole-5,2-diyl((2S,5S)-5-methyl-2,1-pyrrolidinediyl)((1S)-1-(2-oxaspiro[3.3]hept-6-yl)-2-oxo-2,1-ethanediyl)))biscarbamate], the EC50 was 0.00501 to 0.1 nM.

On to `COC(=O)N[C@H](C(=O)N1CC2(CCCC2)C[C@H]1c1nc(-c2ccc(-c3ccc(-c4c[nH]c([C@@H]5CC6(CCCC6)CN5C(=O)[C@@H](NC(=O)OC)C5C[C@@H](C)O[C@H](C)C5)n4)cc3)cc2)c[nH]1)C1C[C@@H](C)O[C@H](C)C1` (stereo partly drawn) [Example JLR-1.0, dimethyl (4,4′-biphenyldiylbis(1H-imidazole-4,2-diyl(3S)-2-azaspiro[4.4]nonane-3,2-diyl((1S)-1-((2R,6R)-2,6-dimethyltetrahydro-2H-pyran-4-yl)-2-oxo-2,1-ethanediyl)))biscarbamate], for which the EC50 is 0.00501 to 0.1 nM.

Take `COC(=O)N[C@H](C(=O)N1C[C@H](CC2CC2)C[C@H]1c1nc(-c2ccc(-c3ccc(-c4c[nH]c([C@@H]5C[C@@H](CC6CC6)CN5C(=O)[C@@H](NC(=O)OC)C5C[C@@H](C)O[C@H](C)C5)n4)cc3)cc2)c[nH]1)C1C[C@@H](C)O[C@H](C)C1` (stereo partly drawn) [Example JLR-2.0, dimethyl (4,4′-biphenyldiylbis(1H-imidazole-4,2-diyl((2S,4R)-4-(cyclopropylmethyl)-2,1-pyrrolidinediyl)((1S)-1-((2R,6R)-2,6-dimethyltetrahydro-2H-pyran-4-yl)-2-oxo-2,1-ethanediyl)))biscarbamate]: the EC50 lay in the range of 0.00501 to 0.1 nM.

As to `COC(=O)N[C@H](C(=O)N1[C@@H]2C[C@@H]2C[C@H]1c1nc(-c2ccc(-c3ccc(-c4c[nH]c([C@@H]5C[C@H]6C[C@H]6N5C(=O)[C@@H](NC(=O)OC)C5CCC(=O)CC5)n4)cc3)cc2)c[nH]1)C1CCC(=O)CC1` [Example OL10, dimethyl (4,4′-biphenyldiylbis(1H-imidazole-4,2-diyl(1R,3S,5R)-2-azabicyclo[3.1.0]hexane-3,2-diyl((1S)-2-oxo-1-(4-oxocyclohexyl)-2,1-ethanediyl)))biscarbamate], the EC50 was 0.1 to 0.9 nM.

As to `COC(=O)N[C@H](C(=O)N1[C@@H]2C[C@@H]2C[C@H]1c1nc(-c2ccc(-c3ccc(-c4c[nH]c([C@@H]5C[C@H]6C[C@H]6N5C(=O)[C@@H](NC(=O)OC)C56CC(C(F)(F)F)(C5)C6)n4)cc3)cc2)c[nH]1)C12CC(C(F)(F)F)(C1)C2` [Example OL11, dimethyl (4,4′-biphenyldiylbis(1H-imidazole-4,2-diyl(1R,3S,5R)-2-azabicyclo[3.1.0]hexane-3,2-diyl((1S)-2-oxo-1-(3-(trifluoromethyl)bicyclo[1.1.1]pent-1-yl)-2,1-ethanediyl)))biscarbamate], the EC50 lay in the range of 0.00501 to 0.1 nM.

In the case of `COC(=O)NC(C(=O)N1CCC[C@H]1c1nc(-c2ccc(-c3c[nH]c([C@@H]4CCCN4C(=O)C(NC(=O)OC)C4CCOC5(CC5)C4)n3)cc2)c[nH]1)C1CCOC2(CC2)C1` (stereo partly drawn) [Example QC14, dimethyl (benzene-1,4-diylbis(1H-imidazole-4,2-diyl(2S)pyrrolidine-2,1-diyl(1-(4-oxaspiro[2.5]oct-7-yl)-2-oxoethane-2,1-diyl)))biscarbamate], the EC50 was 0.9 to 700 nM.

`COC(=O)NC(C(=O)N(C)[C@@H](C)c1nc2cc(C#Cc3ccc4nc([C@H](C)N(C)C(=O)C(NC(=O)OC)C5CCOC6(CC6)C5)[nH]c4c3)ccc2[nH]1)C1CCOC2(CC2)C1` (stereo partly drawn) [OL2, methyl (2-(((1S)-1-(5-((2-((1S)-1-((((methoxycarbonyl)amino)(4-oxaspiro[2.5]oct-7-yl)acetyl)(methyl)amino)ethyl)-1H-benzimidazol-6-yl)ethynyl)-1H-benzimidazol-2-yl)ethyl)(methyl)amino)-1-(4-oxaspiro[2.5]oct-7-yl)-2-oxoethyl)carbamate]: the EC50 was in the range of 0.00501 to 0.1 nM.

For the compound `COC(=O)NC(C(=O)N1[C@@H]2C[C@@H]2C[C@H]1c1ncc(-c2ccc(-c3ccc(-c4cnc([C@@H]5C[C@H]6C[C@H]6N5C(=O)[C@@H](NC(=O)OC)C(C)C)[nH]4)cc3)cc2)[nH]1)C1CCOC2(CC2)C1` (stereo partly drawn) [OL3, methyl ((2S)-1-((1R,3S,5R)-3-(5-(4′-(2-((1R,3S,5R)-2-(((methoxycarbonyl)amino)(4-oxaspiro[2.5]oct-7-yl)acetyl)-2-azabicyclo[3.1.0]hex-3-yl)-1H-imidazol-5-yl)biphenyl-4-yl)-1H-imidazol-2-yl)-2-azabicyclo[3.1.0]hex-2-yl)-3-methyl-1-oxobutan-2-yl)carbamate], the EC50 is 0.00501 to 0.1 nM.

As to `COC(=O)NC(C(=O)N1CCC[C@H]1c1ncc(-c2ccc(-c3ccc(-c4cnc([C@@H]5CCCN5C(=O)C(NC(=O)OC)C5CCOC6(CC6)C5)[nH]4)cn3)cc2)[nH]1)C1CCOC2(CC2)C1` (stereo partly drawn) [OL6, methyl (2-((2S)-2-(5-(6-(4-(2-((2S)-1-(((methoxycarbonyl)amino)(4-oxaspiro[2.5]oct-7-yl)acetyl)pyrrolidin-2-yl)-1H-imidazol-5-yl)phenyl)pyridin-3-yl)-1H-imidazol-2-yl)pyrrolidin-1-yl)-1-(4-oxaspiro[2.5]oct-7-yl)-2-oxoethyl)carbamate], the EC50 lay in the range of 0.1 to 0.9 nM.

The test is the same for the next values; noted with them: read-out: Range: EC50 ranges against HCV 1b.
In the case of `COC(=O)NC(C(=O)N1C(c2nc(Cl)c(-c3ccc(-c4ccc(-c5[nH]c(C6CC7CC7N6C(=O)C(NC(=O)OC)C6CCOC7(CC7)C6)nc5Cl)cc4)cc3)[nH]2)CC2CC21)C1CCOC2(CC2)C1` [OL5, dimethyl (((1R,1′R,3S,3′S,5R,5′R)-3,3′-(5,5′-([1,1′-biphenyl]-4,4′-diyl)bis(4-chloro-1H-imidazole-5,2-diyl))bis(2-azabicyclo[3.1.0]hexane-3,2-diyl))bis(2-oxo-1-(4-oxaspiro[2.5]octan-7-yl)ethane-2,1-diyl))dicarbamate], the EC50 was 0.00501 to 0.1 nM.
